Data reported in ChEMBL document CHEMBL3227956 (J Med Chem, 1979).

Key:
[1] = tested on: Mus musculus; experiment: Toxicity in mouse allografted with mouse L1210 cells assessed as survival rate at 500 mg/kg, ip administered on day 1 measured on day 30 relative to control; format: organism-based; set-up: dose 500 mg/kg, route intraperitoneal; conditions: in vivo
[2] = tested on: L1210; experiment: Antitumor activity against mouse L1210 cells allografted in mouse assessed as increase in survival rate at 500 mg/kg, ip administered on day 1 measured on day 30 relative to control; format: functional; conditions: route intraperitoneal
[3] = tested on: L1210; experiment: Antitumor activity against mouse L1210 cells allografted in mouse assessed as increase in survival rate at 62.5 mg/kg, ip administered on day 1 measured on day 30 relative to control; format: functional; conditions: route intraperitoneal
[4] = Hydrolytic stability in CDCl3 assessed as formation of 3-ammonio-2-bromopropyl phenylphosphonate measured within 2 hrs by NMR analysis; format: physicochemical
[5] = Hydrolytic stability in deuteriochloroform; format: physicochemical
[6] = Hydrolytic stability in D2O/Me2SO-d6 assessed as formation of 3-ammonio-2-bromopropyl phenylphosphonate at 37 degC after 24 hrs by NMR analysis; format: physicochemical
[7] = tested on: Mus musculus; experiment: Toxicity in mouse allografted with mouse L1210 cells assessed as survival rate at 150 mg/kg, ip administered on day 1 measured on day 30 relative to control; format: organism-based; set-up: dose 150 mg/kg, route intraperitoneal; conditions: in vivo
[8] = tested on: L1210; experiment: Antitumor activity against mouse L1210 cells allografted in mouse assessed as increase in survival rate at 150 mg/kg, ip administered on day 1 measured on day 30 relative to control; format: functional; conditions: route intraperitoneal
[9] = Therapeutic index, ratio of LD50 for mouse allografted with mouse ADJ/PC6 cells to ED90 for mouse ADJ/PC6 cells allografted in mouse
[10] = tested on: ADJ/PC6; experiment: Antitumor activity against mouse ADJ/PC6 cells allografted in mouse
[11] = Toxicity in mouse allografted with mouse ADJ/PC6 cells
[12] = tested on: W256; experiment: Cytotoxicity against rat Walker 256 cells assessed as growth inhibition in absence of microsomal activation; conditions: W256, read-out: ID50
[13] = tested on: Mus musculus; experiment: Toxicity in mouse allografted with mouse L1210 cells assessed as survival rate at 250 mg/kg, ip administered on day 1 measured on day 30 relative to control; format: organism-based; set-up: dose 250 mg/kg, route intraperitoneal; conditions: in vivo
[14] = tested on: W256; experiment: Cytotoxicity against rat Walker 256 cells assessed as growth inhibition in presence of microsomal activation; conditions: W256, read-out: ID50
[15] = tested on: Mus musculus; experiment: Toxicity in mouse allografted with mouse L1210 cells assessed as survival rate at 62.5 mg/kg, ip administered on day 1 measured on day 30 relative to control; format: organism-based; set-up: dose 62.5 mg/kg, route intraperitoneal; conditions: in vivo

With O=P12OCCCN1CCN2CCCl (stereo not drawn) the Activity [1] was “Non-toxic” and the T/C [2] was 105%.

With O=P1(N2CC2)OCCCN1CCCl (stereo not drawn) the T/C [3] was 110%.

In the case of O=P1(c2ccccc2)NCC(Br)CO1 (stereo not drawn), the Stability [4] is reported as “Unstable”, the Stability [5] is reported as “Stable” and the Stability [6] is reported as “Unstable”.

For O=P1(Oc2ccccc2)NCC(Br)CO1 (stereo not drawn), the Stability [6] was “Stable”.

In the case of [O-][P@@+]1(Oc2ccccc2)NC[C@H](Br)CO1 (racemic), the Activity [7] is reported as “Non-toxic” and the T/C [8] is reported as 113%.

Compound O=P1(N(CCCl)CCCl)NCCCO1 (racemic) [CYCLOPHOSPHAMIDE ANHYDROUS] has a selectivity ratio [9] of 95, an ED90 [10] of 4.75 mg/kg and an LD50 [11] of 450 mg/kg. The IC50 [12] was > 500 µg/mL, the Activity [13] was “Non-toxic” and the IC50 [14] was 0.5 µg/mL.

For [O-][P@@+]1(c2ccccc2)NC[C@@H](Br)CO1 (single isomer, unassigned; fast eluting), the Activity [13] was “Non-toxic”.

With [O-][P@@+]1(Oc2ccccc2)NC[C@@H](Br)CO1 (single isomer, unassigned; fast eluting) the Activity [15] was “Non-toxic” and the T/C [3] was 107%.
